Source: publication PMC9154192 (PLoS Biology, 2022)
“And” between values parts separate entries of the source, which are not always exact repeats. Equal values may be shown once. Read-outs that look alike come from different tables or passages of the source.

Key:
M. tuberculosis H37Rv [1] = experiment: Luminescence-based microbial cell viability assay; set-up: species or system Mycobacterium tuberculosis; conditions: for RLU/50ul (replicates1-3), single values / RLU/ml (×100) / RLU/50ul (average): Fig 2C
M. tuberculosis H37Rv [2] = type: cell-based, Mycobacterium tuberculosis; conditions: for CFU/ml (average) / CFU/ml, single values / Intracellular M. tuberculosis, % (Drug Free = 100.0): Fig 3A, H37Rv
XDR M. tuberculosis = type: cell-based, Mycobacterium tuberculosis
M. tuberculosis H37Rv [3] = type: in vivo, BALB/c mice; conditions: for Efficacy in BALB/C mouse model of pulmonary tuberculosis, Average: Fig 4A
[4] = type: in vivo, Crl:CD SD rats; conditions: single oral dose up to 2,000 mg/kg, SD rats, 2 weeks
Procedure: Toxicity studies were conducted at Biotoxtech (Korea) under review and approval from IACUC (170842, 180144, 170889) of Biotoxtech. All animals used in the toxicity test were purchased from OrientBio (Korea).
For acute toxicity study with a single oral administration, 6-week-old Crl:CD SD rats were used. For PP1S, a total of 8 groups (n = 4 rats/group) were used (0, 500, 1,000, and 2,000 mg/kg for females and males, respectively). For PP2S, a total of 4 groups (n = 5 rats/group) were used (0 and 2,000 mg/kg for females and males, respectively). […] Corn oil (Sigma, USA) was used as the vehicle. Control animals were treated only with the same volume of the vehicle.

[5] = Acute oral toxicity test in mice; type: in vivo, BALB/c mice; conditions: single oral, 5 mice; for Deaths of mice, Days after dosing 0: day 0; for Deaths of mice, Days after dosing 1: day 1; for Deaths of mice, Days after dosing 2: day 2; for Deaths of mice, Days after dosing 3: day 3; for Deaths of mice, Days after dosing 4: day 4; for Deaths of mice, Days after dosing 5: day 5; for Deaths of mice, Days after dosing 6: day 6; for Deaths of mice, Days after dosing 7: day 7; for Deaths of mice, Days after dosing 8: day 8; for Deaths of mice, Days after dosing 9: day 9; for Deaths of mice, Days after dosing 10: day 10; for Deaths of mice, Days after dosing 11: day 11; for Deaths of mice, Days after dosing 12: day 12; for Deaths of mice, Days after dosing 13: day 13; for Deaths of mice, Days after dosing 14: day 14
Procedure: This experiment was conducted in a toxicity test at Soonchunhyang University's Animal Biological Safety Level 2 (ABSL-2) facility. The study protocol was reviewed and approved by Soonchunhyang University Animal Ethics Committee. Six-week-old female BALB/c were purchased from Koatech (Pyeongtaek, Korea) and five mice per group were tested. Drugs were orally administered once using a zonde and observed for two weeks. Corn oil (Sigma, USA) was used as the vehicle.

Compound: COC(=O)[C@@H]1CCC(=O)N1Cc1cc2ccc(OC)cc2c2cc(OC)c(OC)cc12 [PP1S, (S)-N-[(2,3,6-Trimethoxy-10-phenanthryl)methyl]-pyroglutamic acid methyl ester]
- RLU/50ul (replicates1-3), single values (M. tuberculosis H37Rv [1]; drug conc. 0.39): 1910 RLU/50ul and 1870 RLU/50ul and 3370 RLU/50ul and 3410 RLU/50ul and 3790 RLU/50ul and 1810 RLU/50ul and 1790 RLU/50ul and 1970 RLU/50ul and 1850 RLU/50ul
- RLU/ml (×100) (M. tuberculosis H37Rv [1]; drug conc. 0.39): 483.8 RLU/ml (×100)
- RLU/50ul (average) (M. tuberculosis H37Rv [1]; drug conc. 0.39, average of each replicate set): 3523 RLU/50ul and 1857 RLU/50ul and 1877 RLU/50ul
- RLU/50ul (replicates1-3), single values (M. tuberculosis H37Rv [1]; drug conc. 0.78): 1380 RLU/50ul and 1580 RLU/50ul and 2750 RLU/50ul and 2760 RLU/50ul and 3450 RLU/50ul and 2020 RLU/50ul and 2180 RLU/50ul and 1970 RLU/50ul and 1410 RLU/50ul
- RLU/ml (×100) (M. tuberculosis H37Rv [1]; drug conc. 0.78): 433.3 RLU/ml (×100)
- RLU/50ul (average) (M. tuberculosis H37Rv [1]; drug conc. 0.78, average of each replicate set): 2987 RLU/50ul and 2057 RLU/50ul and 1457 RLU/50ul
- RLU/50ul (replicates1-3), single values (M. tuberculosis H37Rv [1]; drug conc. 1.56): 750 RLU/50ul and 850 RLU/50ul and 1460 RLU/50ul and 1290 RLU/50ul and 960 RLU/50ul and 1050 RLU/50ul and 1110 RLU/50ul and 1070 RLU/50ul and 790 RLU/50ul
- RLU/ml (×100) (M. tuberculosis H37Rv [1]; drug conc. 1.56): 207.3 RLU/ml (×100)
- RLU/50ul (average) (M. tuberculosis H37Rv [1]; drug conc. 1.56, average of each replicate set): 1237 RLU/50ul and 1077 RLU/50ul and 797 RLU/50ul
- concentration with significant antitubercular effect (M. tuberculosis H37Rv [1]; luminescence-based assay): 1.56 µg/mL
- CFU/ml (average) (M. tuberculosis H37Rv [2]; drug conc. 1.6): 26333 CFU/ml
- CFU/ml, single values (M. tuberculosis H37Rv [2]; drug conc. 1.6): 26400 CFU/ml and 26700 CFU/ml and 25900 CFU/ml
- Intracellular M. tuberculosis, % (Drug Free = 100.0) (M. tuberculosis H37Rv [2]; drug conc. 1.6): 78.3%
- CFU/ml (average) (M. tuberculosis H37Rv [2]; drug conc. 3.1): 21190 CFU/ml
- CFU/ml, single values (M. tuberculosis H37Rv [2]; drug conc. 3.1): 20900 CFU/ml and 22200 CFU/ml and 20470 CFU/ml
- Intracellular M. tuberculosis, % (Drug Free = 100.0) (M. tuberculosis H37Rv [2]; drug conc. 3.1): 63.0%
- CFU/ml (average) (M. tuberculosis H37Rv [2]; drug conc. 6.3): 15203 CFU/ml
- CFU/ml, single values (M. tuberculosis H37Rv [2]; drug conc. 6.3): 15200 CFU/ml and 14100 CFU/ml and 16310 CFU/ml
- Intracellular M. tuberculosis, % (Drug Free = 100.0) (M. tuberculosis H37Rv [2]; drug conc. 6.3): 45.2%
- CFU/ml (average) (M. tuberculosis H37Rv [2]; drug conc. 12.5): 8003 CFU/ml
- CFU/ml, single values (M. tuberculosis H37Rv [2]; drug conc. 12.5): 8000 CFU/ml and 7500 CFU/ml and 8510 CFU/ml
- Intracellular M. tuberculosis, % (Drug Free = 100.0) (M. tuberculosis H37Rv [2]; drug conc. 12.5): 23.8%
- CFU/ml (average) (M. tuberculosis H37Rv [2]; drug conc. 25): 707 CFU/ml
- Intracellular M. tuberculosis, % (Drug Free = 100.0) (M. tuberculosis H37Rv [2]; drug conc. 25): 2.1%
- growth of M. tuberculosis in macrophages (CFU) (M. tuberculosis H37Rv [2]; H37Rv in Raw 264.7 cells, 3 days, concentration-dependent): significantly inhibited the growth
- growth of M. tuberculosis in macrophages (CFU) (XDR M. tuberculosis): significantly inhibited the growth
- Efficacy in BALB/C mouse model of pulmonary tuberculosis, Average (M. tuberculosis H37Rv [3]; group dose 15, 6 mice): 4150
- Efficacy in BALB/C mouse model of pulmonary tuberculosis, Average (M. tuberculosis H37Rv [3]; group dose 30, 6 mice): 2508
- reduction of bacterial load in lungs compared to drug-free group (M. tuberculosis H37Rv [3]; mouse, in vivo): more than 90%
- granulomatous lesions in lung sections (HE staining) (M. tuberculosis H37Rv [3]; mouse, in vivo, po): limited number of small granulomatous lesions
- change in body weight compared to control group [4]: no significant change
- clinical symptoms and death [4]: not observed
- Deaths of mice, Days after dosing 0 ([5]; Dose 500 mg/kg): 0
- Deaths of mice, Days after dosing 1 ([5]; Dose 500 mg/kg): 0
- Deaths of mice, Days after dosing 2 ([5]; Dose 500 mg/kg): 0
- Deaths of mice, Days after dosing 3 ([5]; Dose 500 mg/kg): 0
- Deaths of mice, Days after dosing 4 ([5]; Dose 500 mg/kg): 0
- Deaths of mice, Days after dosing 5 ([5]; Dose 500 mg/kg): 0
- Deaths of mice, Days after dosing 6 ([5]; Dose 500 mg/kg): 0
- Deaths of mice, Days after dosing 7 ([5]; Dose 500 mg/kg): 0
- Deaths of mice, Days after dosing 8 ([5]; Dose 500 mg/kg): 0
- Deaths of mice, Days after dosing 9 ([5]; Dose 500 mg/kg): 0
- Deaths of mice, Days after dosing 10 ([5]; Dose 500 mg/kg): 0
- Deaths of mice, Days after dosing 11 ([5]; Dose 500 mg/kg): 0
- Deaths of mice, Days after dosing 12 ([5]; Dose 500 mg/kg): 0
- Deaths of mice, Days after dosing 13 ([5]; Dose 500 mg/kg): 0
- Deaths of mice, Days after dosing 14 ([5]; Dose 500 mg/kg): 0
- Deaths of mice, Days after dosing 0 ([5]; Dose 1000 mg/kg): 0
- Deaths of mice, Days after dosing 1 ([5]; Dose 1000 mg/kg): 0
- Deaths of mice, Days after dosing 2 ([5]; Dose 1000 mg/kg): 0
- Deaths of mice, Days after dosing 3 ([5]; Dose 1000 mg/kg): 0
- Deaths of mice, Days after dosing 4 ([5]; Dose 1000 mg/kg): 0
- Deaths of mice, Days after dosing 5 ([5]; Dose 1000 mg/kg): 0
- Deaths of mice, Days after dosing 6 ([5]; Dose 1000 mg/kg): 0
- Deaths of mice, Days after dosing 7 ([5]; Dose 1000 mg/kg): 0
- Deaths of mice, Days after dosing 8 ([5]; Dose 1000 mg/kg): 0
- Deaths of mice, Days after dosing 9 ([5]; Dose 1000 mg/kg): 0
- Deaths of mice, Days after dosing 10 ([5]; Dose 1000 mg/kg): 0
- Deaths of mice, Days after dosing 11 ([5]; Dose 1000 mg/kg): 0
- Deaths of mice, Days after dosing 12 ([5]; Dose 1000 mg/kg): 0
- Deaths of mice, Days after dosing 13 ([5]; Dose 1000 mg/kg): 0
- Deaths of mice, Days after dosing 14 ([5]; Dose 1000 mg/kg): 0
- Deaths of mice, Days after dosing 0 ([5]; Dose 2000 mg/kg): 0
- Deaths of mice, Days after dosing 1 ([5]; Dose 2000 mg/kg): 0
- Deaths of mice, Days after dosing 2 ([5]; Dose 2000 mg/kg): 0
- Deaths of mice, Days after dosing 3 ([5]; Dose 2000 mg/kg): 0
- Deaths of mice, Days after dosing 4 ([5]; Dose 2000 mg/kg): 0
- Deaths of mice, Days after dosing 5 ([5]; Dose 2000 mg/kg): 0
- Deaths of mice, Days after dosing 6 ([5]; Dose 2000 mg/kg): 0
- Deaths of mice, Days after dosing 7 ([5]; Dose 2000 mg/kg): 0
- Deaths of mice, Days after dosing 8 ([5]; Dose 2000 mg/kg): 0
- Deaths of mice, Days after dosing 9 ([5]; Dose 2000 mg/kg): 0
- Deaths of mice, Days after dosing 10 ([5]; Dose 2000 mg/kg): 0
- Deaths of mice, Days after dosing 11 ([5]; Dose 2000 mg/kg): 0
- Deaths of mice, Days after dosing 12 ([5]; Dose 2000 mg/kg): 0
- Deaths of mice, Days after dosing 13 ([5]; Dose 2000 mg/kg): 0
- Deaths of mice, Days after dosing 14 ([5]; Dose 2000 mg/kg): 0
